Assay [1] has as its target IKKε (Homo sapiens (Human), UniProt Q14164). As to the kind of experiment: IKKε TR-FRET enzymatic assay. Conditions: read-out: IKKe IC50. The format is biochemical. A general note: Time-resolved FRET reads energy transfer from a long-lived donor to a nearby acceptor.
The target in assay [2] is hJAK2 (Homo sapiens (Human), UniProt O60674). The experiment in a line: hJAK2 LANCE TR-FRET enzymatic assay. The format is biochemical. To be noted: read-out: JAK2 IC50.
Assay [3] has as its target TBK1 (Homo sapiens (Human), UniProt Q9UHD2). As to the kind of experiment: TBK1 TR-FRET enzymatic assay.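 Further: phosphorylation of a biotinylated Ser/Thr peptide by purified full-length recombinant TBK1, read by TR-FRET after 240 min at 25 °C, IC50 is the geometric mean of at least four runs.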
Setting [4] is: TR-FRET, 2×Km ATP, geometric mean of minimum four determinations.

Each structure is given as a SMILES string. Where two headings read alike, the source gives them in different places.

hJAK2, sequence (O60674 whole entry): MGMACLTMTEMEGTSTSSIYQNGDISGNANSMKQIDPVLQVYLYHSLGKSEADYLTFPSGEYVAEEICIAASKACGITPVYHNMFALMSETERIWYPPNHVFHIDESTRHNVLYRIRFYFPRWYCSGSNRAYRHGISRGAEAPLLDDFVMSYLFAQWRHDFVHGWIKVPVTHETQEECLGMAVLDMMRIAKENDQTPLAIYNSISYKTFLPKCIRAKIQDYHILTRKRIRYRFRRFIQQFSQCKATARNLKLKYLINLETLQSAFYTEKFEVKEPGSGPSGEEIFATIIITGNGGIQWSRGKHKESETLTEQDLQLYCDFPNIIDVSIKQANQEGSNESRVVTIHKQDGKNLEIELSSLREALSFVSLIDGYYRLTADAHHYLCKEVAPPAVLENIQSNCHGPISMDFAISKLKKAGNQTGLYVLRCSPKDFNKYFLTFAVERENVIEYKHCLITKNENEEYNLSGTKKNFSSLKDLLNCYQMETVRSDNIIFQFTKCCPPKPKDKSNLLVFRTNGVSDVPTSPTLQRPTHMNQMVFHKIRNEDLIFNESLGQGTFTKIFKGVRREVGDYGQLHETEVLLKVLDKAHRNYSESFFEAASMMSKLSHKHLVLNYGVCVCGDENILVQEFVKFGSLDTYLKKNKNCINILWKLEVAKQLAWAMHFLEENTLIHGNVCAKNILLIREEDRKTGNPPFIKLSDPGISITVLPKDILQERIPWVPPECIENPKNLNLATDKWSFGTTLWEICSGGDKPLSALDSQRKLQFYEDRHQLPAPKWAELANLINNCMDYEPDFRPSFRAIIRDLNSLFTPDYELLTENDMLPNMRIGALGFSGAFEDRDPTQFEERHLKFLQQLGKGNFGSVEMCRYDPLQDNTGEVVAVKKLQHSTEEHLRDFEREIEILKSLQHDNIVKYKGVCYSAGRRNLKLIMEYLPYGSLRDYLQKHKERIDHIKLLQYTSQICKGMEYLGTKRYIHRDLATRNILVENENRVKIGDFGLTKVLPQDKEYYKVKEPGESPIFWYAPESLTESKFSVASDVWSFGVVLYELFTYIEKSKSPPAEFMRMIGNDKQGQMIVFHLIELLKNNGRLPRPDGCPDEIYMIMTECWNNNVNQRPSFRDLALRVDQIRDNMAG
IKKε, sequence (Q14164 whole entry): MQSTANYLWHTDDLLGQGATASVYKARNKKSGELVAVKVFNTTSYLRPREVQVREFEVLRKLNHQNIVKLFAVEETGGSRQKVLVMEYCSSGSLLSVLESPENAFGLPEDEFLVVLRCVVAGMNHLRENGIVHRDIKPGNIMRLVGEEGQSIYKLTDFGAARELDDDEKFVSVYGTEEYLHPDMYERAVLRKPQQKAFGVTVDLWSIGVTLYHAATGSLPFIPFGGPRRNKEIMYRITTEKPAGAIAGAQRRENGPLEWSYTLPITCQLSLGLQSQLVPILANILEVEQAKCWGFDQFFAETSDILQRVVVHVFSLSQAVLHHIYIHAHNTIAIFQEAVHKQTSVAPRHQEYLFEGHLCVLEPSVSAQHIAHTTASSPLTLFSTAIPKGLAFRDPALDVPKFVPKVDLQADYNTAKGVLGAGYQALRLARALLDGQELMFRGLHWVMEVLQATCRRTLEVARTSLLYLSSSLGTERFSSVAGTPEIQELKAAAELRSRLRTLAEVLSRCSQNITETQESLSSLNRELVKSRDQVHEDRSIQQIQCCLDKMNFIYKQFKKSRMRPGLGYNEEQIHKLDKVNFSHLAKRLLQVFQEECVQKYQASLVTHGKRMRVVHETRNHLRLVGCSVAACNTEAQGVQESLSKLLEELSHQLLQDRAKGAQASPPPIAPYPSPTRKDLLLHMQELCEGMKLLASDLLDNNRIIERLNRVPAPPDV
TBK1, sequence (Q9UHD2 whole entry): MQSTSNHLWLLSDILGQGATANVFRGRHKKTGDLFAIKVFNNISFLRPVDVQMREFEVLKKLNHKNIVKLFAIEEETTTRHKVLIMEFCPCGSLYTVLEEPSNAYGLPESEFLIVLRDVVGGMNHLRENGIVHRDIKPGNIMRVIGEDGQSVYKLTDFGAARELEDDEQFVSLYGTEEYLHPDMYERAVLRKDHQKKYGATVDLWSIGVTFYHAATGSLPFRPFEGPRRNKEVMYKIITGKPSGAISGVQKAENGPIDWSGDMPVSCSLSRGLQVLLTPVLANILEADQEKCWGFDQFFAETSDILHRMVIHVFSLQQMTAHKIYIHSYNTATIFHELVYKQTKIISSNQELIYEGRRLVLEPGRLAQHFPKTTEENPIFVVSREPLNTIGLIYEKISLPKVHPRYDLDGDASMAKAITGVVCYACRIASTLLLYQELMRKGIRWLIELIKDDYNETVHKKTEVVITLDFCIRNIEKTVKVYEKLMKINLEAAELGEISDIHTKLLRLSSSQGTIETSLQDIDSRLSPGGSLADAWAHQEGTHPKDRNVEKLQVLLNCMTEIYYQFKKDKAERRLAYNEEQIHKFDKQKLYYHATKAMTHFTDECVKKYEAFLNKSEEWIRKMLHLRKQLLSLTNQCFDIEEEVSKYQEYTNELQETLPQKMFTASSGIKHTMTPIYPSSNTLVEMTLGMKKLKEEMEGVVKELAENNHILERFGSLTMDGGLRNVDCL

As a reminder, the IC50 is the concentration that gives 50% inhibition. As to `C[C@@H]1C[C@H](Oc2ccc(-c3ncnc(Nc4ccc(N5CCN(C6COC6)CC5)cc4)n3)cc2C#N)CCN1C(=O)[C@@H](C)O` [Example 186, 2-(((2R,4R)-1-((R)-2-hydroxypropanoyl)-2-methylpiperidin-4-yl)oxy)-5-(4-((4-(4-(oxetan-3-yl)piperazin-1-yl)phenyl)amino)-1,3,5-triazin-2-yl)benzonitrile], the IC50 was 312 nM in assay [1], not below 1000 nM in assay [2] and 128 nM in assay [3].
Turning to `N#Cc1cc(-c2ncnc(Nc3ccc(N4CCN(C5COC5)CC4)cc3)n2)ccc1O[C@H]1CCN(C(=O)N2CC[C@H](O)C2)C[C@H]1F` [Example 426, 2-(((3R,4S)-3-fluoro-1-((S)-3-hydroxypyrrolidine-1-carbonyl)piperidin-4-yl)oxy)-5-(4-((4-(4-(oxetan-3-yl)piperazin-1-yl)phenyl)amino)-1,3,5-triazin-2-yl)benzonitrile], the IC50 in assay [1] (setting [4]) is 201 nM; in assay [2], not below 1000 nM; in assay [3], 79 nM.
As to `C[C@H]1CN(C2COC2)CCN1c1ccc(Nc2ncnc(-c3ccc(O[C@H]4CCN(C(=O)c5cnc[nH]5)CC4(F)F)c(C#N)c3)n2)cc1` [Example 259, 2-(((S)-3,3-difluoro-1-(1H-imidazole-5-carbonyl)piperidin-4-yl)oxy)-5-(4-((4-((S)-2-methyl-4-(oxetan-3-yl)piperazin-1-yl)phenyl)amino)-1,3,5-triazin-2-yl)benzonitrile], the IC50 worked out at 1 nM in assay [1], 66 nM in assay [2] and 3 nM in assay [3].
Turning to `N#Cc1cc(-c2ncnc(Nc3ccc(N4CCN(C5COC5)CC4)cc3)n2)ccc1OC1CCN(C(=O)[C@H]2CCC(=O)N2)C[C@H]1F` (stereo partly drawn) [Example 113, 2-(((3R)-3-fluoro-1-((R)-5-oxopyrrolidine-2-carbonyl)piperidin-4-yl)oxy)-5-(4-((4-(4-(oxetan-3-yl)piperazin-1-yl)phenyl)amino)-1,3,5-triazin-2-yl)benzonitrile], the results for the IC50 in assay [1], in assay [2] and in assay [3] were 100 nM, 292 nM and 64 nM, respectively.
`N#Cc1cc(-c2ncnc(Nc3ccc(N4CCN(C5COC5)CC4)cc3)n2)ccc1O[C@H]1CCN(C(=O)[C@H]2CCCO2)C[C@H]1F` [Example 505, 2-(((3R,4S)-3-fluoro-1-((R)-tetrahydrofuran-2-carbonyl)piperidin-4-yl)oxy)-5-(4-((4-(4-(oxetan-3-yl)piperazin-1-yl)phenyl)amino)-1,3,5-triazin-2-yl)benzonitrile]: the IC50 in assay [1] (setting [4]) worked out at 41 nM; in assay [2] it was 532 nM; in assay [3] it was 12 nM.
Turning to `Cc1noc(C(=O)N2CC[C@H](Oc3ccc(-c4ncnc(Nc5ccc(N6CCN(C7COC7)CC6)cc5)n4)cc3C#N)[C@H](F)C2)n1` [Example 612, 2-(((3R,4S)-3-fluoro-1-(3-methyl-1,2,4-oxadiazole-5-carbonyl)piperidin-4-yl)oxy)-5-(4-((4-(4-(oxetan-3-yl)piperazin-1-yl)phenyl)amino)-1,3,5-triazin-2-yl)benzonitrile], the figures for the IC50 in assay [1], in assay [2] and in assay [3] were 2 nM, 607 nM and 3 nM, respectively.
Take `N#Cc1cc(-c2ncnc(Nc3ccc(N4CCN(C5COC5)CC4)c(F)c3)n2)ccc1OC1CCS(=O)(=O)CC1` [Example 268, 2-((1,1-dioxidotetrahydro-2H-thiopyran-4-yl)oxy)-5-(4-((3-fluoro-4-(4-(oxetan-3-yl)piperazin-1-yl)phenyl)amino)-1,3,5-triazin-2-yl)benzonitrile]: the IC50 was found to be 69 nM in assay [1], 527 nM in assay [2] and 12 nM in assay [3].
In the case of `CC(=O)Nc1ccc(Nc2ncnc(-c3ccc(O[C@H]4CCN(C(=O)[C@H](C)O)C[C@H]4F)c(C#N)c3)n2)cn1` [Example 540, N-(5-((4-(3-cyano-4-(((3R,4S)-3-fluoro-1-((S)-2-hydroxypropanoyl)piperidin-4-yl)oxy)phenyl)-1,3,5-triazin-2-yl)amino)pyridin-2-yl)acetamide], the IC50 in assay [1] (setting [4]) was 21 nM; in assay [2] it was not below 1000 nM; in assay [3] it was 20 nM.
